pIC50: −log10 of the molar value. One block for each compound: values may come before it.
System: 439559-082-T-J2-PDC spheroids viability
Assay: Anticancer human tumor 439559-082-T-J2-PDC patient-derived colon adenocarcinoma cell line growth inhibition [GQUAD]
Details: for pIC50: curve of first compound; for viability, T/C: stronger effect = lower value
Outline: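 Tumor cells were grown as complex spheroids with HUVEC endothelial cells and mesenchymal stem cells as stroma. G-quadruplex stabilizers were combined with targeted agents over half-log dilutions from near the clinical Cmax, or from 10 microM.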

[1] = second compound 0.0316 µM, first compound 0.0316 µM
[2] = second compound 0.0316 µM, first compound 0.1 µM
[3] = second compound 0.0316 µM, first compound 0.316 µM
[4] = second compound 0.0316 µM, first compound 1 µM
[5] = second compound 0.0316 µM, first compound 3.16 µM
[6] = second compound 0.0316 µM, first compound 10 µM
[7] = second compound 0.1 µM, first compound 0.0316 µM
[8] = second compound 0.1 µM, first compound 0.1 µM
[9] = second compound 0.1 µM, first compound 0.316 µM
[10] = second compound 0.1 µM, first compound 1 µM
[11] = second compound 0.1 µM, first compound 3.16 µM
[12] = second compound 0.1 µM, first compound 10 µM
[13] = second compound 0.316 µM, first compound 0.0316 µM
[14] = second compound 0.316 µM, first compound 0.1 µM
[15] = second compound 0.316 µM, first compound 0.316 µM
[16] = second compound 0.316 µM, first compound 1 µM
[17] = second compound 0.316 µM, first compound 3.16 µM
[18] = second compound 0.316 µM, first compound 10 µM
[19] = second compound 1 µM, first compound 0.0316 µM
[20] = second compound 1 µM, first compound 0.1 µM
[21] = second compound 1 µM, first compound 0.316 µM
[22] = second compound 1 µM, first compound 1 µM
[23] = second compound 1 µM, first compound 3.16 µM
[24] = second compound 1 µM, first compound 10 µM
[25] = second compound 3.16 µM, first compound 0.0316 µM
[26] = second compound 3.16 µM, first compound 0.1 µM
[27] = second compound 3.16 µM, first compound 0.316 µM
[28] = second compound 3.16 µM, first compound 1 µM
[29] = second compound 3.16 µM, first compound 3.16 µM
[30] = second compound 3.16 µM, first compound 10 µM
[31] = second compound 10 µM, first compound 0.0316 µM
[32] = second compound 10 µM, first compound 0.1 µM
[33] = second compound 10 µM, first compound 0.316 µM
[34] = second compound 10 µM, first compound 1 µM
[35] = second compound 10 µM, first compound 3.16 µM
[36] = second compound 10 µM, first compound 10 µM
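Further: spheroids exposed to the agents for 7 days before readout.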
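Wherever viability, T/C is given: percent of luminescence signal in DMSO vehicle wells taken as 100% viability.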

pIC50 (second compound 0.0316 µM): 6.26
pIC50 (second compound 0.1 µM): 6.35
pIC50 (second compound 0.316 µM): 6.35
pIC50 (second compound 1 µM): 6.45
pIC50 (second compound 3.16 µM): 6.42
pIC50 (second compound 10 µM): 6.58
SMILES: O=C(NO)c1cnc(N2CCN(S(=O)(=O)c3ccc4ccccc4c3)CC2)nc1 + Cc1cnc(CNC(=O)c2c(=O)c3ccc(N4CCCN(C)CC4)nc3n3c2sc2ccccc23)cn1
viability, T/C [1]: 90.2%
viability, T/C [2]: 88.9%
viability, T/C [3]: 68.9%
viability, T/C [4]: 29.1%
viability, T/C [5]: 0.23%
viability, T/C [6]: 0.25%
viability, T/C [7]: 93.5%
viability, T/C [8]: 85.8%
viability, T/C [9]: 67.2%
viability, T/C [10]: 10.9%
viability, T/C [11]: 0.24%
viability, T/C [12]: 0.21%
viability, T/C [13]: 98.1%
viability, T/C [14]: 83.4%
viability, T/C [15]: 66.7%
viability, T/C [16]: 15.7%
viability, T/C [17]: 0.18%
viability, T/C [18]: 0.24%
viability, T/C [19]: 77.9%
viability, T/C [20]: 73.2%
viability, T/C [21]: 53.9%
viability, T/C [22]: 15.3%
viability, T/C [23]: 0.16%
viability, T/C [24]: 0.14%
viability, T/C [25]: 72%
viability, T/C [26]: 64.5%
viability, T/C [27]: 58.1%
viability, T/C [28]: 8.79%
viability, T/C [29]: 0.12%
viability, T/C [30]: 0.18%
viability, T/C [31]: 62.7%
viability, T/C [32]: 62.8%
viability, T/C [33]: 47.6%
viability, T/C [34]: 0.23%
viability, T/C [35]: 0.17%
viability, T/C [36]: 0.18%

pIC50 (second compound 0.0316 µM): 6.80
pIC50 (second compound 0.1 µM): 6.91
pIC50 (second compound 0.316 µM): 6.90
pIC50 (second compound 1 µM): 7.03
pIC50 (second compound 3.16 µM): 7.21
pIC50 (second compound 10 µM): 7.17
SMILES: CCc1c2c(nc3ccc(O)cc13)-c1cc3c(c(=O)n1C2)COC(=O)[C@]3(O)CC + Cc1cnc(CNC(=O)c2c(=O)c3ccc(N4CCCN(C)CC4)nc3n3c2sc2ccccc23)cn1
viability, T/C (second compound 0.0316 µM, first compound 0.000999 µM): 99.4%
viability, T/C (second compound 0.0316 µM, first compound 0.00316 µM): 83.5%
viability, T/C (second compound 0.0316 µM, first compound 0.00999 µM): 78.8%
viability, T/C [1]: 66.4%
viability, T/C (second compound 0.0316 µM, first compound 0.0999 µM): 53.7%
viability, T/C [3]: 43.1%
viability, T/C (second compound 0.1 µM, first compound 0.000999 µM): 88.7%
viability, T/C (second compound 0.1 µM, first compound 0.00316 µM): 79.5%
viability, T/C (second compound 0.1 µM, first compound 0.00999 µM): 76.2%
viability, T/C [7]: 68.1%
viability, T/C (second compound 0.1 µM, first compound 0.0999 µM): 53.4%
viability, T/C [9]: 34%
viability, T/C (second compound 0.316 µM, first compound 0.000999 µM): 77.3%
viability, T/C (second compound 0.316 µM, first compound 0.00316 µM): 70.1%
viability, T/C (second compound 0.316 µM, first compound 0.00999 µM): 72.3%
viability, T/C [13]: 65%
viability, T/C (second compound 0.316 µM, first compound 0.0999 µM): 55%
viability, T/C [15]: 31.8%
viability, T/C (second compound 1 µM, first compound 0.000999 µM): 67.3%
viability, T/C (second compound 1 µM, first compound 0.00316 µM): 69.9%
viability, T/C (second compound 1 µM, first compound 0.00999 µM): 60.6%
viability, T/C [19]: 59.4%
viability, T/C (second compound 1 µM, first compound 0.0999 µM): 50.1%
viability, T/C [21]: 33.8%
viability, T/C (second compound 3.16 µM, first compound 0.000999 µM): 65.7%
viability, T/C (second compound 3.16 µM, first compound 0.00316 µM): 74.8%
viability, T/C (second compound 3.16 µM, first compound 0.00999 µM): 56.9%
viability, T/C [25]: 55.7%
viability, T/C (second compound 3.16 µM, first compound 0.0999 µM): 47.6%
viability, T/C [27]: 24.6%
viability, T/C (second compound 10 µM, first compound 0.000999 µM): 60.6%
viability, T/C (second compound 10 µM, first compound 0.00316 µM): 60.4%
viability, T/C (second compound 10 µM, first compound 0.00999 µM): 58.3%
viability, T/C [31]: 52.8%
viability, T/C (second compound 10 µM, first compound 0.0999 µM): 48.8%
viability, T/C [33]: 20.1%

SMILES: C#Cc1c(F)ccc2cc(O)cc(-c3ncc4c(N5CC6CCC(C5)N6)nc(OCC56CCCN5CC(F)C6)nc4c3F)c12 (stereo unspecified) + CN(C)c1ccc(Nc2c3ccc(NC(=O)CCN4CCCC4)cc3nc3cc(NC(=O)CCN4CCCC4)ccc23)cc1
pIC50 (second compound 0.0316 µM): < 5.00
pIC50 (second compound 0.1 µM): 5.41
pIC50 (second compound 0.316 µM): 5.16
pIC50 (second compound 1 µM): < 5.00
pIC50 (second compound 3.16 µM): 5.43
pIC50 (second compound 10 µM): 5.50
viability, T/C [1]: 83.6%
viability, T/C [2]: 70.7%
viability, T/C [3]: 66%
viability, T/C [4]: 60.1%
viability, T/C [5]: 56.1%
viability, T/C [6]: 49.1%
viability, T/C [7]: 94%
viability, T/C [8]: 68.5%
viability, T/C [9]: 73.1%
viability, T/C [10]: 58.1%
viability, T/C [11]: 54%
viability, T/C [12]: 42.6%
viability, T/C [13]: 79.3%
viability, T/C [14]: 82.8%
viability, T/C [15]: 62.2%
viability, T/C [16]: 62%
viability, T/C [17]: 55.5%
viability, T/C [18]: 47.6%
viability, T/C [19]: 91.5%
viability, T/C [20]: 73.2%
viability, T/C [21]: 64.6%
viability, T/C [22]: 55.4%
viability, T/C [23]: 61.8%
viability, T/C [24]: 48.5%
viability, T/C [25]: 81.9%
viability, T/C [26]: 75.3%
viability, T/C [27]: 69.1%
viability, T/C [28]: 52.4%
viability, T/C [29]: 55.2%
viability, T/C [30]: 43.4%
viability, T/C [31]: 84.4%
viability, T/C [32]: 77.7%
viability, T/C [33]: 62.5%
viability, T/C [34]: 54.7%
viability, T/C [35]: 56.4%
viability, T/C [36]: 40.7%

Source: PubChem BioAssay AID2060510 (Molecular Pharmacology Branch, DTP, NCI, 2025)
